Here are results for 22 compounds from PubChem BioAssay AID248 (DTP/NCI, 2004).

Toxic doses and inconclusive results are not listed.

In this experiment the test system is L1210 leukemia ip in BDF1 mice, survival T/C. As to the kind of experiment: NCI In Vivo Anticancer Drug Screen. Data for tumor model L1210 Leukemia (intraperitoneal) in B6D2F1 (BDF1) mice. To be noted: endpoint: mean survival time, higher = longer survival. A digest of the protocol: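 Tumor cells were implanted, animals were treated, and survival was followed. The result divides the treated measurement by the vehicle-control measurement.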

Setting [1] is: dose: 100.0 mg/kg/injection, schedule: Q01DX001 (ip), vehicle: saline.
[2] abbreviates: dose: 200.0 mg/kg/injection, schedule: Q01DX001 (ip), vehicle: saline.
Where [3] appears, read: dose: 400.0 mg/kg/injection, schedule: Q01DX001 (ip), vehicle: saline.
[4] abbreviates: dose: 100.0 mg/kg/injection, schedule: Q04DX002 (ip), vehicle: Klucel (hydroxypropylcellulose) (HPC).
Where [5] appears, read: dose: 200.0 mg/kg/injection, schedule: Q04DX002 (ip), vehicle: Klucel (hydroxypropylcellulose) (HPC).
Setting [6] is: dose: 400.0 mg/kg/injection, schedule: Q04DX002 (ip), vehicle: Klucel (hydroxypropylcellulose) (HPC).
Setting [7] is: dose: 100.0 mg/kg/injection, schedule: Q01DX009 (ip), vehicle: Klucel (hydroxypropylcellulose) (HPC).
[8] abbreviates: dose: 200.0 mg/kg/injection, schedule: Q01DX009 (ip), vehicle: Klucel (hydroxypropylcellulose) (HPC).
Setting [9] is: dose: 400.0 mg/kg/injection, schedule: Q01DX009 (ip), vehicle: Klucel (hydroxypropylcellulose) (HPC).
Setting [10] is: dose: 100.0 mg/kg/injection, schedule: Q01DX009 (ip), vehicle: saline with Tween-80.
[11] abbreviates: dose: 100.0 mg/kg/injection, schedule: Q04DX003 (ip), vehicle: saline with Tween-80.
[12] abbreviates: dose: 200.0 mg/kg/injection, schedule: Q04DX003 (ip), vehicle: saline with Tween-80.
[13] abbreviates: dose: 400.0 mg/kg/injection, schedule: Q04DX003 (ip), vehicle: saline with Tween-80.
[14] abbreviates: dose: 100.0 mg/kg/injection, schedule: Q04DX003 (ip), vehicle: Klucel (hydroxypropylcellulose) (HPC).
Setting [15] is: dose: 200.0 mg/kg/injection, schedule: Q04DX003 (ip), vehicle: Klucel (hydroxypropylcellulose) (HPC).
Where [16] appears, read: dose: 400.0 mg/kg/injection, schedule: Q04DX003 (ip), vehicle: Klucel (hydroxypropylcellulose) (HPC).

Regarding `O=C(/C=C/CBr)NC(Cc1ccccc1)C(=O)O` (centres undefined), the T/C (dose: 75.0 mg/kg/injection, schedule: Q01DX001 (ip), vehicle: other) was 104 % of control.
Turning to `CC(=O)c1ccc(N=NC2C(=O)N(c3ccccc3)N=C2C)cc1` (centres undefined), the T/C by setting is: under setting [1], 96 % of control; under setting [2], 94 % of control; under setting [3], 102 % of control.
Regarding `CCOc1ccc(-n2c(C)nc3ccccc3c2=O)cc1CNCCBr`, the T/C (dose: 50.0 mg/kg/injection, schedule: Q01DX001 (ip), vehicle: saline) was 103 % of control; the T/C under setting [1] was 111 % of control; the T/C under setting [2] is 111 % of control.
Regarding `CC(=O)Nc1ccc(C(=O)Nc2ccc(C3=NCCN3)cc2)cc1C(=O)Nc1ccc(C2=NCCN2)cc1`, the T/C was 317 % of control (dose: 62.0 mg/kg/injection, schedule: Q01DX015 (ip), vehicle: carboxymethylcellulose (CMC)) and 158 % of control (dose: 250.0 mg/kg/injection, schedule: Q01DX015 (ip), vehicle: carboxymethylcellulose (CMC)).
Take `Cc1cc(NC(=O)NCCCl)c2c(c1C)CCCC2`: the T/C (dose: 20.0 mg/kg/injection, schedule: Q01DX001 (ip), vehicle: Klucel (hydroxypropylcellulose) (HPC)) is 100 % of control; the T/C (dose: 40.0 mg/kg/injection, schedule: Q01DX001 (ip), vehicle: Klucel (hydroxypropylcellulose) (HPC)) is 96 % of control; the T/C (dose: 100.0 mg/kg/injection, schedule: Q01DX001 (ip), vehicle: Klucel (hydroxypropylcellulose) (HPC)) was 90 % of control.
Take `O=C(CCCN1CCC2(CC1)C(=O)NCN2c1ccccc1)c1cccs1`: the T/C is 95 % of control (dose: 3.13 mg/kg/injection, schedule: Q01DX009 (ip), vehicle: saline with Tween-80); 94 % of control (dose: 6.25 mg/kg/injection, schedule: Q01DX009 (ip), vehicle: saline with Tween-80); 102 % of control (dose: 6.25 mg/kg/injection, schedule: Q04DX003 (ip), vehicle: saline with Tween-80); 89 % of control (dose: 12.5 mg/kg/injection, schedule: Q01DX009 (ip), vehicle: saline with Tween-80); 95 % of control (dose: 12.5 mg/kg/injection, schedule: Q04DX003 (ip), vehicle: saline with Tween-80).
As to `c1cc[c]([Sn]([CH2]Cc2ccncc2)([c]2ccccc2)[c]2ccccc2)cc1`, the T/C is 110 % of control (dose: 100.0 mg/kg/injection, schedule: Q04DX002 (sc), vehicle: olive oil, sesame oil, peanut oil); 100 % of control (dose: 200.0 mg/kg/injection, schedule: Q04DX002 (sc), vehicle: olive oil, sesame oil, peanut oil); 103 % of control (dose: 400.0 mg/kg/injection, schedule: Q04DX002 (sc), vehicle: olive oil, sesame oil, peanut oil).
Regarding `O=C(CC(=O)c1ccccc1)Nc1ccccn1`, the T/C is 101 % of control under setting [1] and 98 % of control under setting [2].
With `COC1OC2COc3ccccc3OC2C2C1N2C(N)=O` (centres undefined), the T/C under setting [4] is 104 % of control, the T/C under setting [5] was 96 % of control and the T/C under setting [6] is 100 % of control.
Take `COc1ccc(C(=O)CC(Sc2ccccc2N)c2ccc(OC)cc2)cc1` (centres undefined): the T/C is 87 % of control under setting [7]; 98 % of control under setting [4]; 91 % of control under setting [8]; 95 % of control under setting [5]; 87 % of control under setting [9]; 113 % of control under setting [6].
As for `COC(=N)Cc1ccccc1`, the T/C reads like this: (dose: 75.0 mg/kg/injection, schedule: Q01DX009 (ip), vehicle: saline with Tween-80) 100 % of control; (dose: 150.0 mg/kg/injection, schedule: Q01DX009 (ip), vehicle: saline with Tween-80) 101 % of control; (dose: 300.0 mg/kg/injection, schedule: Q01DX009 (ip), vehicle: saline with Tween-80) 101 % of control.
In the case of `COc1ccc(C2NC(=O)N3C(c4ccc(OC)cc4)NC(=O)N23)cc1` (centres undefined), the T/C is 105 % of control (dose: 100.0 mg/kg/injection, schedule: Q01DX009 (ip), vehicle: gum acacia); 97 % of control (dose: 100.0 mg/kg/injection, schedule: Q04DX003 (ip), vehicle: gum acacia); 89 % of control (dose: 200.0 mg/kg/injection, schedule: Q01DX009 (ip), vehicle: gum acacia); 93 % of control (dose: 400.0 mg/kg/injection, schedule: Q01DX009 (ip), vehicle: gum acacia); 94 % of control (dose: 400.0 mg/kg/injection, schedule: Q04DX003 (ip), vehicle: gum acacia).
As for `C/C(=N\OC(=O)Nc1ccccc1)c1ccccc1`, the T/C reads like this: (dose: 100.0 mg/kg/injection, schedule: Q01DX001 (ip), vehicle: carboxymethylcellulose (CMC)) 98 % of control; (dose: 400.0 mg/kg/injection, schedule: Q01DX001 (ip), vehicle: carboxymethylcellulose (CMC)) 95 % of control.
For the compound `c1ccc2cc(Sc3ncnc4nc[nH]c34)ccc2c1`, the T/C is 97 % of control under setting [10]; 105 % of control under setting [11]; 103 % of control (dose: 200.0 mg/kg/injection, schedule: Q01DX009 (ip), vehicle: saline with Tween-80); 98 % of control under setting [12]; 97 % of control (dose: 400.0 mg/kg/injection, schedule: Q01DX009 (ip), vehicle: saline with Tween-80); 98 % of control under setting [13].
In the case of `Cc1ccc(C)c(OC(=O)NC2CCCCC2)c1`, the T/C is, setting by setting: under setting [7], 93 % of control; under setting [14], 101 % of control; under setting [8], 92 % of control; under setting [15], 104 % of control; under setting [9], 95 % of control; under setting [16], 98 % of control.
For `O=[N+]([O-])c1ccc(CC(O)c2ccccc2Cl)cc1` (centres undefined), the T/C is 102 % of control under setting [7]; 101 % of control under setting [14]; 102 % of control under setting [8]; 101 % of control under setting [15]; 97 % of control under setting [9]; 97 % of control under setting [16].
On to `CC(=O)c1cccc([N+](=O)[O-])c1`, for which the T/C is 91 % of control (dose: 100.0 mg/kg/injection, schedule: Q01DX009 (ip), vehicle: other); 102 % of control (dose: 100.0 mg/kg/injection, schedule: Q04DX003 (ip), vehicle: other); 105 % of control under setting [11]; 105 % of control (dose: 200.0 mg/kg/injection, schedule: Q01DX009 (ip), vehicle: other); 100 % of control (dose: 200.0 mg/kg/injection, schedule: Q04DX003 (ip), vehicle: other); 106 % of control under setting [12]. Moreover, the T/C reads like this: (dose: 400.0 mg/kg/injection, schedule: Q04DX003 (ip), vehicle: other) 94 % of control; under setting [13], 108 % of control.
`COc1ccc(COC2C(CO)OC(n3cnc4c(N)ncnc43)C2O)cc1` (centres undefined): the T/C is, setting by setting: (dose: 100.0 mg/kg/injection, schedule: Q01DX005 (ip), vehicle: saline) 97 % of control; (dose: 200.0 mg/kg/injection, schedule: Q01DX005 (ip), vehicle: saline) 100 % of control.
Consider `O=S(O)O`, for which the T/C runs as follows: under setting [1], 95 % of control; (dose: 100.0 mg/kg/injection, schedule: Q01DX009 (ip), vehicle: saline) 103 % of control; under setting [2], 97 % of control; (dose: 200.0 mg/kg/injection, schedule: Q01DX009 (ip), vehicle: saline) 97 % of control; under setting [3], 103 % of control; (dose: 400.0 mg/kg/injection, schedule: Q01DX009 (ip), vehicle: saline) 100 % of control.
Take `CC(C)(C)c1cc(C(=S)N2CCN(C(=S)c3cc(C(C)(C)C)c(O)c(C(C)(C)C)c3)CC2)cc(C(C)(C)C)c1O`: the T/C runs as follows: under setting [14], 97 % of control; under setting [15], 94 % of control; under setting [16], 96 % of control.
As for `CC(C)(Br)C(=O)c1ccco1`, under setting [10], the T/C is 95 % of control.
For `CCN(CC)CCOc1ccccc1OC`, the T/C is, setting by setting: (dose: 12.0 mg/kg/injection, schedule: Q01DX009 (ip), vehicle: saline) 107 % of control; (dose: 25.0 mg/kg/injection, schedule: Q01DX009 (ip), vehicle: saline) 101 % of control; (dose: 50.0 mg/kg/injection, schedule: Q01DX009 (ip), vehicle: saline) 101 % of control; under setting [1], 93 % of control; under setting [2], 95 % of control.
